Measurements published in ChEMBL document CHEMBL1159347, “A novel constituent from Rollinia mucosa, rollicosin, and a new approach to develop annonaceous acetogenins as potential antitumor agents” (J Nat Prod, 2003).
In brackets after ≈: the same amount, converted by molar mass.

Experiments:
[1] = Cytotoxicity against human HepG2(2.2.15) cells; type: functional, cell-based
HepG2 = assay: Cytotoxicity against human HepG2 cells; type: functional, cell-based

SMILES: COc1cccc2c1C(=O)c1c(O)c3c(c(O)c1C2=O)C[C@@](O)(C(=O)CO)C[C@@H]3O[C@H]1C[C@H](N)[C@H](O)[C@H](C)O1 [DOXORUBICIN]
- IC50 [1]: 0.45 µg/mL (≈ 0.828 µM)

SMILES: C[C@H]1C=C(C[C@H](O)CCCCCCCCCC[C@@H](O)[C@H]2CCC(=O)O2)C(=O)O1 [ROLLICOSIN]
- IC50 (HepG2): 0.1 µg/mL (≈ 0.252 µM)
- IC50 [1]: 0.021 µg/mL (≈ 0.053 µM)
